Here are results for two compounds from patent US12048766B2, “Gamma polyglutamated tetrahydrofolates and uses thereof” (L.E.A.F. HOLDINGS GROUP LLC, priority 2018, dated 2024).

In one data set the test system is HT-29 (colon cancer). In words: CellTiter-Glo luminescent cell viability assay, HT-29. The settings on record: 48 hours, FIG. 3. Type of data set: cell-based, human. On the procedure: Luciferase luminescence were recorded for each well.
The test system of the next data set is AML12 liver cells. In words: Toxicity on AML12 liver cells. The data set is classed as cell-based. The settings on record: all doses studied (16 to 128 nM); 48 hours; FIG. 14. From the text: (§1) Methodologies used for cell line AML12 (non-cancerous liver cells) and CCD841 (non-cancerous colon epithelial cells) are similar to the methods used for cancer cells.

Data set [1] concerns CCD841 colon epithelium cells. In words: Toxicity on CCD841 colon epithelium cells. The data set is classed as cell-based. Conditions: all concentrations tested (16 to 128 nM); 48 hours; FIG. 15.
From the text: as §1

As for `Nc1nc(=O)c2c(CCc3ccc(C(=O)N[C@@H](CCC(=O)N[C@@H](CCC(=O)N[C@@H](CCC(=O)N[C@@H](CCC(=O)N[C@@H](CCC(=O)N[C@@H](CCC(=O)O)C(=O)O)C(=O)O)C(=O)O)C(=O)O)C(=O)O)C(=O)O)cc3)c[nH]c2[nH]1` [gG6, pemetrexed L-gamma hexaglutamate], the “potency rank among test articles” value in the data set with HT-29 (colon cancer) is given as “least potent”.
Regarding `Nc1nc2[nH]cc(CCc3ccc(C(=O)N[C@@H](CCC(=O)O)C(=O)O)cc3)c2c(=O)[nH]1` [pemetrexed], the “reduction in AML12 liver cell counts” value with AML12 liver cells is “approximately 40%”. Moreover, the “decrease in the number of CCD841 colon epithelium cells” value in data set [1] is on record as not below 50%.
